Measured values from patent US20200239398A1, “METHYLENE-CYCLOALKYLACETATE DERIVATIVES AND THEIR USE IN TREATMENT OF NEUROTROPIC CONDITIONS” (Yissum Research Development Company of The Hebrew …, priority 2018, published 2020).

Tests used:
[1] = Acute tolerance in mice, single iv dose; format: in vivo; details: C57BL/6, mouse, in vivo; male mice; predicted from the 250 mg/kg iv study; read-out: LD50 after single dose
Description: (§1) This pilot study was conducted to obtain acute information of the dose toxicity of HU-MCA-13 (Compound 13 in Scheme 1) in male mice. Male C57BL/6 mice, were injected intravenously with 0.2 ml of HU-MCA-13 in a dose of 250 mg/kg. Mice were monitored for 4 consecutive weeks for autonomic and neurotoxicity symptoms. The mortality and changes on body weight, clinical signs, gross observation, were monitored up to 30 days after treatment. No mortality was found at this high dose of 250 mg/kg. […] The mice were examined once a week for autonomic symptoms by measuring salivation, urinary delivery, pupillary constriction, heart rate, blood pressure, and hair contraction. […] Occurrences of either flaccid or spastic paralysis of the legs were not observed. […] Furthermore, no mice sudden deaths occurred within 24 hours after the injection or during the 4 weeks of observation. […] Sensory motor tests were scored individually and according to the modified neurologic function severity score (mNSS). The data from each individual test and the total score calculated from individual tests that make up the mNSS were measured. The following assays were used: a. beam balance test—mice were placed on a 1-inch wide beam for 60 seconds. A normal response is balance with steady posture for 60 seconds (a score of 0). Deficits are scored if the rat: grasps the side of the beam (a score of 1), hugs the beam and one limb falls down from the beam (a score of 2), hugs the beam and two limbs fall off the beam (a score of 3), attempts to balance on the beam, but falls off from 60 seconds (a score of 4), attempts to balance on the beam but falls off from […], or falls off with no attempt to balance or hang on the beam in <20 seconds (a score of 6); b. foot fault test—forelimb movement dysfunction, while walking on elevated metal grids, was monitored. The animal was placed on horizontal grids (85.5×26.5×20) cm with a glass enclosure for observation. With each weight bearing step, the forelimb can fall or slip between the metal support bars, an event recorded as a foot fault. The total number of forelimb steps and the total number of foot faults were recorded. The percentage of forelimb foot faults to the total steps that occurred within 2 minutes marks the test results; c. hind limb placing test—This test monitors reposition of hind limbs placed down and away from the table edge. The ability to retrieve and place the hind limbs back onto the table was scored. Immediate and complete limb retrieval was scored 0, delayed (>2 seconds) limb retrieval and/or interspersed flailing was scored 1, and no limb retrieval was scored 2; d. Increasing platform angle to slide test—This test monitors the strength and stability of resistance to slide down an inclined platform. It deploys a clean wooden board (60 cm by 40 cm) positioned horizontally. Mice were placed on the board with head facing up the increasing incline. The board then swings to increase the degree of inclination the rat experiences until slipping down the board feet first. The degree of the angle at which the rat relinquishes their grip/stance on the board (slips down) constitute the test results; e. the forelimb whole body suspension test—The test measures grip strength by duration of suspension by forepaws. The rat is suspended on a metal bar (diameter 5 mm) which it tightly holds onto by its forelimbs. The time (seconds) during which each rat could sustain its body weight while holding onto the bar is recorded. The mice drop from the bar onto soft material with no harm. The test was repeated three times and a mean result per rat was used as the score. Cumulatively these sensory motor/neurological findings indicate acute tolerability of 250 mg/kg HU-MCA-13 iv injection in Male C57BL/6 mice.

male C57BL/6 mice = experiment: Acute tolerance in mice, single iv dose; format: in vivo
Description: as §1

[2] = 250 mg/kg iv, same for 1% DMSO group

Q: With `C=CCC1CCC[C@@H](CCC(=O)O)C1=C` (some centres unmarked) [Compound 13] as the compound, how does the LD50 at 30 days [1] read?
A: > 2000 mg/kg

Q: And the “neurotoxicity signs (paralysis, motor activity, behavior)” value (male C57BL/6 mice; 250 mg/kg iv)?
A: No paralysis, altered motor activity, or irregular behavior was observed

Q: What about the mortality (male C57BL/6 mice; 250 mg/kg iv single dose, up to 30 days) of the same compound?
A: No mortality

Q: What about the “autonomic symptoms (salivation, urinary delivery, pupillary constriction, heart rate, blood pressure, hair contraction)” value (male C57BL/6 mice; 250 mg/kg iv vs 1% DMSO) of the same compound?
A: no differences were observed

Q: What about the “changes on body weight” value (male C57BL/6 mice; 250 mg/kg iv vs 1% DMSO treated group) of the same compound?
A: No significant changes

Q: What about the “body weight at end” value (male C57BL/6 mice; [2]) of the same compound?
A: 27 gram

Q: What about the “body weight at start” value (male C57BL/6 mice; [2]) of the same compound?
A: 21 gram

Q: What about the “cutaneous hematomas around the injection site or at distant locations” value (male C57BL/6 mice; within 24 hours after injection, 250 mg/kg iv) of the same compound?
A: have not been observed
